Test [1] addresses T1, Lecithin retinol acyltransferase (Bos taurus) (UniProt Q9BGL2).
T1 sequence (whole entry): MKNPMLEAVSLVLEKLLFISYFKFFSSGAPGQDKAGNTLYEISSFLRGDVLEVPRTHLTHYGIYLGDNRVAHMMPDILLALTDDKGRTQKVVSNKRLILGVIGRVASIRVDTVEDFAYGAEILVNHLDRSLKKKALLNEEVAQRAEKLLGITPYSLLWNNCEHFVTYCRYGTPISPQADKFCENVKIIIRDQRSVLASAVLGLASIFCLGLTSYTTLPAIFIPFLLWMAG
In words: Inhibition of LRAT in bovine RPE microsomes at 10 uM using retinol substrate in presence of Palmitoyl-CoA incubated for 5 mins by HPLC analysis relative to control.

The species named for test [2] is Homo sapiens.
Description: Inhibition of transglutaminase in human keratinocytes in presence of 10 uM retinal relative to retinal alone
Test [3] has as its target T1, Lecithin retinol acyltransferase (Bos taurus). The note with it: at 100 µM.
Description: Inhibition of LRAT in bovine RPE microsomes at 100 uM using retinol substrate in presence of Palmitoyl-CoA incubated for 5 mins by HPLC analysis relative to control
The target in test [4] is T2, Diacylglycerol O-acyltransferase 1 (Bos taurus) (UniProt Q8MK44).
T2 sequence (whole entry): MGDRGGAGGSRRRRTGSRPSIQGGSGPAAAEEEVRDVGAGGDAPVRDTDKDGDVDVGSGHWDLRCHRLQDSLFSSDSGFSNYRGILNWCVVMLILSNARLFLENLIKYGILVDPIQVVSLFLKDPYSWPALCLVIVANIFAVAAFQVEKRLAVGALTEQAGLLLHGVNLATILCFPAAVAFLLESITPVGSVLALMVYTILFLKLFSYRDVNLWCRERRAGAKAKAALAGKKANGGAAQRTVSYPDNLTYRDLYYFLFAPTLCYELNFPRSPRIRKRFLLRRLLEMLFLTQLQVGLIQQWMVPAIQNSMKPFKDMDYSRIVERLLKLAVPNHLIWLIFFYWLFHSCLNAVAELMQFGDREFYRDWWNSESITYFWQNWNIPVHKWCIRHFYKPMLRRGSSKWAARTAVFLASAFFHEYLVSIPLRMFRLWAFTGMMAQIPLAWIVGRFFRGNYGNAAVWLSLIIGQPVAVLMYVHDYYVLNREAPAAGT
Particulars: at 100 µM.
Description: Inhibition of ARAT in bovine RPE microsomes at 100 uM using retinol substrate in presence of dilauroyl-phosphatidyl choline incubated for 5 mins by HPLC analysis relative to control

Test [5] is filed under the species Homo sapiens. In words: Inhibition of transglutaminase in human keratinocytes assessed as mean transglutaminase activity level at 1.0 10^-3M in presence of 10 uM retinal relative to retinal alone. It is filed as cell-based. Details: scale not given: the % may be the effect or the level left.
For test [6], the target named is T3, Cellular retinoic acid-binding protein 2 (Homo sapiens) (UniProt P29373).
T3 sequence (whole entry): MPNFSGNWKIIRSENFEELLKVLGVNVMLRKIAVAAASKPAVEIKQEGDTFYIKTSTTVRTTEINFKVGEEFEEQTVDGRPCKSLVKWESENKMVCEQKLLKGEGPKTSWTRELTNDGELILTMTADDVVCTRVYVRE
In words: Inhibition of radioactive all-trans retinoic acid binding to CRABP2 (unknown origin) expressed in Escherichia coli BLR(DE3)pLys incubated for 1 hr by scintillation counting assay. Particulars: concentration not given here.

Test [7] is filed under the species Homo sapiens. In words: Inhibition of transglutaminase in human keratinocytes assessed as mean transglutaminase activity level at 3.73 10^-4M in presence of 10 uM retinal relative to retinal alone. It is filed as cell-based. Details: scale not given: the % may be the effect or the level left.
Test [8] is filed under the species Homo sapiens. In words: Inhibition of transglutaminase in human keratinocytes assessed as mean transglutaminase activity level at 1.1 10^-4M in presence of 10 uM retinal relative to retinal alone. Details: scale not given: the % may be the effect or the level left. The test is classed as cell-based.
The species entered for test [9] is Homo sapiens. In words: Inhibition of transglutaminase in human keratinocytes assessed as mean transglutaminase activity level at 1.65 10^-7M in presence of 10 uM retinal relative to retinal alone. The test is classed as cell-based. Details: scale not given: the % may be the effect or the level left.
For test [10], the species on record is Homo sapiens. In words: Inhibition of transglutaminase in human keratinocytes assessed as mean transglutaminase activity level at 1.23 10^-5M in presence of 10 uM retinal relative to retinal alone. It is filed as cell-based. Details: scale not given: the % may be the effect or the level left.
The species entered for test [11] is Homo sapiens. In words: Inhibition of transglutaminase in human keratinocytes assessed as mean transglutaminase activity level at 3.29 10^-7M in presence of 10 uM retinal relative to retinal alone. The test is classed as cell-based. Details: scale not given: the % may be the effect or the level left.
Test [12] is filed under the species Homo sapiens. In words: Inhibition of transglutaminase in human keratinocytes assessed as mean transglutaminase activity level at 5.0 10^-8M in presence of 10 uM retinal relative to retinal alone. The test is classed as cell-based. Details: scale not given: the % may be the effect or the level left.
Test [13] is filed under the species Homo sapiens. In words: Inhibition of transglutaminase in human keratinocytes assessed as mean transglutaminase activity level at 4.1 10^-5M in presence of 10 uM retinal relative to retinal alone. It is filed as cell-based. Further details: scale not given: the % may be the effect or the level left.
Test [14] concerns the target T2, Diacylglycerol O-acyltransferase 1 (Bos taurus). In words: Inhibition of ARAT in bovine RPE microsomes at 10 uM using retinol substrate in presence of dilauroyl-phosphatidyl choline incubated for 5 mins by HPLC analysis relative to control.
Test [15] is filed under the species Homo sapiens. In words: Inhibition of transglutaminase in human keratinocytes assessed as mean transglutaminase activity level at 8.2 10^-6M in presence of 10 uM retinal relative to retinal alone. It is filed as cell-based. Further details: scale not given: the % may be the effect or the level left.
Test [16] is filed under the species Homo sapiens. In words: Inhibition of transglutaminase in human keratinocytes assessed as mean transglutaminase activity level at 4.1 10^-8M in presence of 10 uM retinal relative to retinal alone. Further details: scale not given: the % may be the effect or the level left. It is filed as cell-based.
Test [17] is filed under the species Homo sapiens. In words: Inhibition of transglutaminase in human keratinocytes assessed as mean transglutaminase activity level at 3.73 10^-7M in presence of 10 uM retinal relative to retinal alone. It is filed as cell-based. Details: scale not given: the % may be the effect or the level left.
The species entered for test [18] is Homo sapiens. In words: Inhibition of transglutaminase in human keratinocytes assessed as mean transglutaminase activity level at 1.23 10^-7M in presence of 10 uM retinal relative to retinal alone. The test is classed as cell-based. Further details: scale not given: the % may be the effect or the level left.
Test [19] is filed under the species Homo sapiens. In words: Inhibition of transglutaminase in human keratinocytes assessed as mean transglutaminase activity level at 1.1 10^-6M in presence of 10 uM retinal relative to retinal alone. Further details: scale not given: the % may be the effect or the level left. The test is classed as cell-based.
For test [20], the species on record is Homo sapiens. In words: Inhibition of transglutaminase in human keratinocytes assessed as mean transglutaminase activity level at 3.29 10^-9M in presence of 10 uM retinal relative to retinal alone. It is filed as cell-based. Details: scale not given: the % may be the effect or the level left.
The species named for test [21] is Homo sapiens. In words: Inhibition of transglutaminase in human keratinocytes assessed as mean transglutaminase activity level at 1.65 10^-9M in presence of 10 uM retinal relative to retinal alone. The test is classed as cell-based. Further details: scale not given: the % may be the effect or the level left.
For test [22], the species on record is Homo sapiens. In words: Inhibition of transglutaminase in human keratinocytes assessed as mean transglutaminase activity level at 8.2 10^-8M in presence of 10 uM retinal relative to retinal alone. It is filed as cell-based. Further details: scale not given: the % may be the effect or the level left.
The species named for test [23] is Rattus norvegicus. In words: Inhibition of retinal reductase in Sprague-Dawley rat liver microsomes at 100 uM using all-trans retinaldehyde and NADPH by HPLC analysis relative to control. For orientation: Liver microsomes are vesicles of endoplasmic reticulum, rich in cytochrome P450 enzymes.
The species named for test [24] is Homo sapiens. In words: Inhibition of transglutaminase in human keratinocytes assessed as mean transglutaminase activity level at 3.3 10^-6M in presence of 10 uM retinal relative to retinal alone. It is filed as cell-based. Details: scale not given: the % may be the effect or the level left.
The species named for test [25] is Homo sapiens. In words: Inhibition of transglutaminase in human keratinocytes assessed as mean transglutaminase activity level at 1 10^-5M in presence of 10 uM retinal relative to retinal alone. It is filed as cell-based. Details: scale not given: the % may be the effect or the level left.
For test [26], the species on record is Homo sapiens. In words: Inhibition of transglutaminase in human keratinocytes assessed as mean transglutaminase activity level at 3 10^-5M in presence of 10 uM retinal relative to retinal alone. The test is classed as cell-based. Further details: scale not given: the % may be the effect or the level left.

Structures are written as SMILES.

As for `CC(/C=C/C=C(\C)C(=O)O)=C\C=C\C=C(C)\C=C\C=C(/C)C(=O)O`, the inhibition in [1] worked out at 0%. The molecule further came in with an IC20 in test [2] of 2.52 ×10⁻⁵ M.

Take `CC(C)(C)C(=O)C(Oc1ccc(Cl)cc1)n1ccnc1` (stereo not given): in [2], the IC20 was 2.45 ×10⁻⁷ M.

For the molecule `CCCCC/C=C\C/C=C\CCCCCCCC(=O)NC(C)c1ccccc1` (stereo not given), the values for the inhibition in test [3] and in test [4] were 43% and 64%, respectively.

In the case of `CC1=CCCC(C)(C)C1/C=C/C(=O)CC(C)C` (stereo not given), the inhibition was determined as 45% in test [3] and 8% in test [4].

In test [2], `CCCCCCCC/C=C\CCCCCCCC1=NCCN1CCO` came in with an IC20 of 5.65 ×10⁻⁶ M.

Molecule `CC(=O)/C=C/C=C(\C)CCC=C(C)C` came in with an inhibition in [4] of 12%.

`CC(=O)C1(C)C2CC3C(C2)C31C` (stereo not given): the values for the inhibition in [3] and in test [4] were 12% and 23%, respectively.

On to `CCCCCCCC/C=C/CCCCCCCC(=O)O`, for which the Activity in test [5] is 12.8%; in test [7], 13.8%; in [8], 8%; in test [9], 58%; in [10], 80.9%; in [11], 69%. Also, the values for the Activity in [12] and in [13] were 50.5% and 58.2%, respectively. In addition, the inhibition in test [6] was above 50%. The IC20 in test [2] came to 5.88 ×10⁻⁵ M.

Consider `CC(=O)/C=C/C1C(C)=CCCC1(C)C` (stereo not given), for which the IC20 in test [2] turned out to be 1.42 ×10⁻⁴ M.

Turning to `CC(=O)/C(C)=C/C1C(C)=CCCC1(C)C` (stereo not given), the inhibition in test [3] stood at 38%.

As for `CCN(CC)CC(=O)Nc1c(C)cccc1C`, the inhibition in test [3] stood at 0%.

With `C/C=C\C(=O)C1C(C)=CCCC1(C)C` (stereo not given), the inhibition stood at 98% in test [3], 87% in test [1], 67% in test [14] and 83% in test [4]. Also, the IC20 in test [2] is 1.69 ×10⁻⁴ M.

In turn, `CCC=CCCC=CC=O` had an inhibition in test [4] of 20%.

For `CCCCCCCCCCCCCC(=O)O`, the Activity in test [15] is 74.2%; in test [5] it was -2%; in [7] it was -6%; in test [8], -8%; in test [9], 88.9%; in [11] it was 101%. Also, the Activity in [13] was found to be 75.1%. Besides, the IC20 in test [2] is 1.05 ×10⁻⁵ M.

`CC(=O)N1CCN(c2ccc(OCC3COC(Cn4ccnc4)(c4ccc(Cl)cc4Cl)O3)cc2)CC1` (stereo not given) had an IC20 in [2] of 5.52 ×10⁻⁸ M.

`CCCCC/C=C\C/C=C\CCCCCCCC(=O)N(CCO)CCO`: the inhibition in [3] worked out at 51%; in [1], 11%; in test [14], 12%; in test [4], 43%.

Consider `CC(C)=CCCC(C)=CCCC(C)=CCO`, for which the inhibition was 53% in [3], 10% in test [1], 23% in test [14] and 53% in test [4]. This molecule also yielded an IC20 in test [2] of 7.82 ×10⁻⁵ M.

Consider `CC1(C)[C@@H](O)CC[C@]2(C)[C@H]3C(=O)C=C4[C@@H]5C[C@@](C)(C(=O)O)CC[C@]5(C)CC[C@@]4(C)[C@]3(C)CC[C@@H]12`, for which the Activity was 93% in test [16]; 120% in test [17]; 112% in [18]; 96.4% in test [19]; 100% in test [20]; 103% in [21]. In addition, the Activity was 225% in [22], 2.5% in test [24], 0.7% in test [25] and -0.3% in test [26]. The same molecule registered an inhibition in test [23] of 38%. In [2], this molecule showed an IC20 of 5.96 ×10⁻⁶ M.

In [2], `CCCCCCCC/C=C\CCCCCCCC[N+](C)(C)CC(=O)[O-]` came in with an IC20 of 1.08 ×10⁻⁵ M. Further, the inhibition in test [4] was determined as 47%.

On to `C[C@H]1[C@H](C)CC[C@]2(C(=O)O)CC[C@]3(C)C(=CC[C@@H]4[C@@]5(C)CC[C@H](O)C(C)(C)[C@@H]5CC[C@]43C)[C@H]12`, for which, in test [2], the IC20 came to 5.94 ×10⁻⁷ M.

`O=c1c2cccc3cccc(c32)c2nc3ccccc3n12` returned an IC20 in [2] of 4.69 ×10⁻⁷ M.

Take `CC(C)=CCC/C(C)=C/CO`: the IC20 in test [2] stood at 4.72 ×10⁻³ M.

As usually defined, the inhibition is the change of the read-out against control, counted positive when it falls.

These data come from ChEMBL document CHEMBL4420071, “Method for treating skin with retinoids and retinoid boosters” (2013).
